Laboratory results published in patent US20130053310A1 (NOVO NORDISK A/S, priority 2010, published 2013).
Entries after “also recorded” stand apart in the source; their conditions may differ. Peptide text beside a SMILES is read from it.

Experiments:
glucagon receptor = molecular target: T1, glucagon receptor (Homo sapiens, UniProt P47871); experiment: Assay (I) Glucagon activity: cAMP biosensor (ACTOne) FLIPR assay in HEK-293 cells with cloned glucagon receptor; type: cell-based
T1 construct: expressed in transfected cells
T1 sequence (P47871 26-477): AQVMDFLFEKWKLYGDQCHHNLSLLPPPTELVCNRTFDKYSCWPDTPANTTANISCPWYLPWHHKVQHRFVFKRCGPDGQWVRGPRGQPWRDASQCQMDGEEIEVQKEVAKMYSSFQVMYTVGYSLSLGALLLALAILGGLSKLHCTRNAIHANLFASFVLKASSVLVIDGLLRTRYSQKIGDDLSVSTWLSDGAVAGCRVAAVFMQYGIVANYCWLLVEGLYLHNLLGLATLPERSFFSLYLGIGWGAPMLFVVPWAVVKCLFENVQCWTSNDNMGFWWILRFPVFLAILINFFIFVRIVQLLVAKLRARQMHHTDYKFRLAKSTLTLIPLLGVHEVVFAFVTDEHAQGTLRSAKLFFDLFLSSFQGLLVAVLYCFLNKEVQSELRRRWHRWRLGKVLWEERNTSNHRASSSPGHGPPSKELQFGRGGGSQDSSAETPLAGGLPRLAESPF
Protocol: The cells (14000 per well) were incubated (37° C., 5% CO2) overnight in 384-well plates. Next day the cells were loaded with a calcium responsive dye that only distributed into the cytoplasm. Probenecid, an inhibitor of the organic anion transporter, was added to prevent the dye from leaving the cell. A PDE inhibitor was added to prevent formatted cAMP from being degraded. […] End point data were collected after 6 minutes. An increase in intracellular cAMP was proportional to an increased in calcium concentrations in the cytoplasm. When calcium was bound the dry a fluorescence signal was generated. EC50-values were calculated in Prism5.

[1] = Assay (II) ThT fibrillation assay for physical stability; type: physicochemical; settings: shaking 960 rpm; for Assay (II) (pH 4.0) Lag time (hours): ThT fibrillation assay, pH 4.0, 250 μM, 10 mM glycylglycine, 45 hours at 37° C.
Description: This has traditionally been measured by visual inspection of the sample. However, that kind of measurement is very subjective and depending on the observer. Therefore, the application of a small molecule indicator probe is much more advantageous.
Here, F is the ThT fluorescence at the time t. The constant t0 is the time needed to reach 50% of maximum fluorescence.
Few of those intermediates nucleate to form a template onto which further intermediates may assembly and the fibrillation proceeds. The lag-time corresponds to the interval in which the critical mass of nucleus is built up and the apparent rate constant is the rate with which the fibril itself is formed.
Samples were prepared freshly before each assay. […] The pH of the sample was adjusted to the desired value using appropriate amounts of concentrated NaOH and HCl. Thioflavin T was added to the samples from a stock solution in H2O to a final concentration of 1 μM.
The plate was sealed with Scotch Pad (Qiagen).
Each run was initiated by incubating the plate at the assay temperature for 10 min. The plate was measured every 20 minutes for a desired period of time. Between each measurement, the plate was shaken and heated as described.
The supernatant was filtered through a 0.22 μm filter and an aliquot was transferred to a HPLC vial.
The measurement points were saved in Microsoft Excel format for further processing and curve drawing and fitting was performed using GraphPad Prism.
The data set may be fitted to Eq. (1).

Row | SMILES | EC50 (glucagon receptor) | Assay (II) (pH 4.0) Lag time (hours) [1] | ThT emission / fibrillation upon physical stress ([1]; 250 μM in 1 μM ThT, 10 mM glycylglycine buffer pH 4.0, 45 hours at 37° C.)
1 | CC(C)C[C@H](NC(=O)[C@H](Cc1ccc(O)cc1)NC(=O)[C@H](CCCCN)NC(=O)[C@H](CO)NC(=O)[C@H](Cc1ccc(O)cc1)NC(=O)[C@H](CC(=O)O)NC(=O)[C@H](CO)NC(=O)[C@@H](NC(=O)[C@H](Cc1ccccc1)NC(=O)[C@@H](NC(=O)CNC(=O)[C@H](CCC(N)=O)NC(=O)[C@H](CO)NC(=O)[C@@H](N)Cc1c[nH]cn1)[C@@H](C)O)[C@@H](C)O)C(=O)N[C@@H](CC(=O)O)C(=O)N[C@@H](CO)C(=O)N[C@@H](CCCNC(=N)N)C(=O)N[C@@H](CCCNC(=N)N)C(=O)N[C@@H](C)C(=O)N[C@@H](CCC(N)=O)C(=O)N[C@@H](CCC(=O)O)C(=O)N[C@@H](Cc1ccccc1)C(=O)N[C@H](C(=O)N[C@@H](CCC(N)=O)C(=O)N[C@@H](CCCCN)C(=O)N[C@@H](CC(C)C)C(=O)N[C@@H](CC(C)C)C(=O)N[C@@H](CC(N)=O)C(=O)N[C@H](C(=O)O)[C@@H](C)O)C(C)C [Example 9, [Glu^21, Lys^25, Leu^27]-Glucagon] | 0.043 nM | > 45 hours | –
2 | CC(C)C[C@H](NC(=O)[C@H](Cc1ccc(O)cc1)NC(=O)[C@H](CCCCN)NC(=O)[C@H](CO)NC(=O)[C@H](Cc1ccc(O)cc1)NC(=O)[C@H](CC(=O)O)NC(=O)[C@H](CO)NC(=O)[C@@H](NC(=O)[C@H](Cc1ccccc1)NC(=O)[C@@H](NC(=O)CNC(=O)[C@H](CCC(N)=O)NC(=O)[C@H](CO)NC(=O)[C@@H](N)Cc1c[nH]cn1)[C@@H](C)O)[C@@H](C)O)C(=O)N[C@@H](CC(=O)O)C(=O)N[C@@H](CO)C(=O)N[C@@H](CCCNC(=N)N)C(=O)N[C@@H](CCCNC(=N)N)C(=O)N[C@@H](C)C(=O)N[C@@H](CCC(N)=O)C(=O)N[C@@H](CC(=O)O)C(=O)N[C@@H](Cc1ccccc1)C(=O)N[C@H](C(=O)N[C@@H](CCC(N)=O)C(=O)N[C@@H](CCCNC(=N)N)C(=O)N[C@@H](CC(C)C)C(=O)N[C@@H](CC(C)C)C(=O)N[C@@H](CC(N)=O)C(=O)N[C@H](C(=O)O)[C@@H](C)O)C(C)C [Example 5, [Arg^25, Leu^27]-Glucagon] | 0.057 nM | > 45 hours | –
3 | CC(C)C[C@H](NC(=O)[C@H](Cc1ccc(O)cc1)NC(=O)[C@H](CCCCN)NC(=O)[C@H](CO)NC(=O)[C@H](Cc1ccc(O)cc1)NC(=O)[C@H](CC(=O)O)NC(=O)[C@H](CO)NC(=O)[C@@H](NC(=O)[C@H](Cc1ccccc1)NC(=O)[C@@H](NC(=O)CNC(=O)[C@H](CCC(N)=O)NC(=O)[C@H](CO)NC(=O)[C@@H](N)Cc1c[nH]cn1)[C@@H](C)O)[C@@H](C)O)C(=O)N[C@@H](CC(=O)O)C(=O)N[C@@H](CO)C(=O)N[C@@H](CCCNC(=N)N)C(=O)N[C@@H](CCCNC(=N)N)C(=O)N[C@@H](C)C(=O)N[C@@H](CCC(N)=O)C(=O)N[C@@H](CC(=O)O)C(=O)N[C@@H](Cc1ccccc1)C(=O)N[C@H](C(=O)N[C@@H](CCC(N)=O)C(=O)N[C@@H](Cc1c[nH]cn1)C(=O)N[C@@H](CC(C)C)C(=O)N[C@@H](CC(C)C)C(=O)N[C@@H](CC(N)=O)C(=O)N[C@H](C(=O)O)[C@@H](C)O)C(C)C [Example 7, [His^25, Leu^27]-Glucagon] | 0.019 nM | > 45 hours | –
4 | CC(C)C[C@H](NC(=O)[C@H](Cc1ccc(O)cc1)NC(=O)[C@H](CCCCN)NC(=O)[C@H](CO)NC(=O)[C@H](Cc1ccc(O)cc1)NC(=O)[C@H](CC(=O)O)NC(=O)[C@H](CO)NC(=O)[C@@H](NC(=O)[C@H](Cc1ccccc1)NC(=O)[C@@H](NC(=O)CNC(=O)[C@H](CCC(N)=O)NC(=O)[C@H](CO)NC(=O)[C@@H](N)Cc1c[nH]cn1)[C@@H](C)O)[C@@H](C)O)C(=O)N[C@@H](CC(=O)O)C(=O)N[C@@H](CO)C(=O)N[C@@H](CCCNC(=N)N)C(=O)N[C@@H](CCCNC(=N)N)C(=O)N[C@@H](C)C(=O)N[C@@H](CCC(N)=O)C(=O)N[C@@H](CCC(=O)O)C(=O)N[C@@H](Cc1ccccc1)C(=O)N[C@H](C(=O)N[C@@H](CCC(N)=O)C(=O)N[C@@H](CCCNC(=N)N)C(=O)N[C@@H](CC(C)C)C(=O)N[C@@H](CC(C)C)C(=O)N[C@@H](CO)C(=O)N[C@H](C(=O)O)[C@@H](C)O)C(C)C [Example 6, [Glu^21, Arg^25, Leu^27, Ser^28]-Glucagon] | 0.026 nM | > 45 hours | –
5 | CC(C)C[C@H](NC(=O)[C@H](Cc1ccc(O)cc1)NC(=O)[C@H](CCCCN)NC(=O)[C@H](CO)NC(=O)[C@H](Cc1ccc(O)cc1)NC(=O)[C@H](CC(=O)O)NC(=O)[C@H](CO)NC(=O)[C@@H](NC(=O)[C@H](Cc1ccccc1)NC(=O)[C@@H](NC(=O)CNC(=O)[C@H](CCC(N)=O)NC(=O)[C@H](CO)NC(=O)[C@@H](N)Cc1c[nH]cn1)[C@@H](C)O)[C@@H](C)O)C(=O)N[C@@H](CC(=O)O)C(=O)N[C@@H](CO)C(=O)N[C@@H](CCCNC(=N)N)C(=O)N[C@@H](CCCNC(=N)N)C(=O)N[C@@H](C)C(=O)N[C@@H](CCC(N)=O)C(=O)N[C@@H](CC(=O)O)C(=O)N[C@@H](Cc1ccccc1)C(=O)N[C@H](C(=O)N[C@@H](CCC(N)=O)C(=O)N[C@@H](CCCCN)C(=O)N[C@@H](CC(C)C)C(=O)N[C@@H](CC(C)C)C(=O)N[C@@H](CC(N)=O)C(=O)N[C@H](C(=O)O)[C@@H](C)O)C(C)C [Example 8, [Lys^25, Leu^27]-Glucagon] | 0.1 nM | > 45 hours | –
6 | CC(C)C[C@H](NC(=O)[C@H](Cc1ccc(O)cc1)NC(=O)[C@H](CCCCN)NC(=O)[C@H](CO)NC(=O)[C@H](Cc1ccc(O)cc1)NC(=O)[C@H](CC(=O)O)NC(=O)[C@H](CO)NC(=O)[C@@H](NC(=O)[C@H](Cc1ccccc1)NC(=O)[C@@H](NC(=O)CNC(=O)[C@H](CCC(N)=O)NC(=O)[C@H](CO)NC(=O)[C@@H](N)Cc1c[nH]cn1)[C@@H](C)O)[C@@H](C)O)C(=O)N[C@@H](CCC(=O)O)C(=O)N[C@@H](CO)C(=O)N[C@@H](CCCNC(=N)N)C(=O)N[C@@H](CCCNC(=N)N)C(=O)N[C@@H](C)C(=O)N[C@@H](CCC(N)=O)C(=O)N[C@@H](CCC(=O)O)C(=O)N[C@@H](Cc1ccccc1)C(=O)N[C@H](C(=O)N[C@@H](CCC(N)=O)C(=O)N[C@@H](CCCNC(=N)N)C(=O)N[C@@H](CC(C)C)C(=O)N[C@@H](CC(C)C)C(=O)N[C@@H](CC(N)=O)C(=O)N[C@H](C(=O)O)[C@@H](C)O)C(C)C [Example 10, [Glu^15, Glu^21, Arg^25, Leu^27]-Glucagon] (H-HSQGTFTSDYSKYLESRRAQEFVQRLLNT-OH) | 0.266 nM | > 45 hours | –
7 | CC(C)C[C@H](NC(=O)[C@H](Cc1ccc(O)cc1)NC(=O)[C@H](CCCCN)NC(=O)[C@H](CO)NC(=O)[C@H](Cc1ccc(O)cc1)NC(=O)[C@H](CC(=O)O)NC(=O)[C@H](CO)NC(=O)[C@@H](NC(=O)[C@H](Cc1ccccc1)NC(=O)[C@@H](NC(=O)CNC(=O)[C@H](CCC(N)=O)NC(=O)[C@H](CO)NC(=O)[C@@H](N)Cc1c[nH]cn1)[C@@H](C)O)[C@@H](C)O)C(=O)N[C@@H](CC(=O)O)C(=O)N[C@@H](CO)C(=O)N[C@@H](CCCNC(=N)N)C(=O)N[C@@H](CCCNC(=N)N)C(=O)N[C@@H](C)C(=O)N[C@@H](CCC(N)=O)C(=O)N[C@@H](CC(=O)O)C(=O)N[C@@H](Cc1ccccc1)C(=O)N[C@H](C(=O)N[C@@H](CCC(N)=O)C(=O)N[C@@H](Cc1ccc(OP(=O)(O)O)cc1)C(=O)N[C@@H](CC(C)C)C(=O)N[C@@H](CC(C)C)C(=O)N[C@@H](CC(N)=O)C(=O)N[C@H](C(=O)O)[C@@H](C)O)C(C)C [Example 2, [(O-phosphono)Tyr^25,Leu^27]Glucagon] | 0.017 nM | – | –
8 | CC(C)C[C@H](NC(=O)[C@H](Cc1ccc(O)cc1)NC(=O)[C@H](CCCCN)NC(=O)[C@H](CO)NC(=O)[C@H](Cc1ccc(O)cc1)NC(=O)[C@H](CC(=O)O)NC(=O)[C@H](CO)NC(=O)[C@@H](NC(=O)[C@H](Cc1ccccc1)NC(=O)[C@@H](NC(=O)CNC(=O)[C@H](CCC(N)=O)NC(=O)[C@H](CO)NC(=O)[C@@H](N)Cc1c[nH]cn1)[C@@H](C)O)[C@@H](C)O)C(=O)N[C@@H](CC(=O)O)C(=O)N[C@@H](CO)C(=O)N[C@@H](CCCNC(=N)N)C(=O)N[C@@H](CCCNC(=N)N)C(=O)N[C@@H](C)C(=O)N[C@@H](CCC(N)=O)C(=O)N[C@@H](CCC(=O)O)C(=O)N[C@@H](Cc1ccccc1)C(=O)N[C@H](C(=O)N[C@@H](CCC(N)=O)C(=O)N[C@@H](CCCNC(=N)N)C(=O)N[C@@H](CC(C)C)C(=O)N[C@@H](CC(C)C)C(=O)N[C@@H](CC(N)=O)C(=O)N[C@H](C(=O)O)[C@@H](C)O)C(C)C [Example 1, [Glu^21, Arg^25, Leu^27]Glucagon] | 0.017 nM | – | does not fibrillate; also recorded: no ThT emission occurred
